The results in this text go back to patent US20240287062A1, “NAPHTHYRIDONE COMPOUNDS FOR INHIBITION OF RAF KINASES AND/OR BCR-ABL TYROSINE KINASES” (Enliven Inc., priority 2021, published 2024).

The target of one assay is c-KIT (Homo sapiens (Human), UniProt P10721). As to the kind of experiment: Luminescence-based c-KIT kinase assay (Km ATP), ADP-Glo. Type of assay: biochemical. Particulars: compound at 100 nM concentration. The protocol: Kinase activity of c-KIT was measured using the ADP-Glo system (Promega). Compounds were diluted in DMSO at 100 μM. 20 nL of compound or DMSO only (high control, HC) were added to a 384-well plate (OptiPlate-384, PerkinElmer) using an Echo550 liquid handler (Labcyte). 15 μL of kinase solution (10 mM MgCl2, 0.01% Brij-35, 2 mM DTT, 0.05% BSA, 1 mM EGTA, 50 mM HEPES pH 7.5, and 13.3 nM c-KIT [Carna Biosciences]) were added to each well of the 384-well plate containing the compounds. No enzyme control wells were included (low control, LC). The plate was incubated at room temperature for 30 minutes. 5 μL of a second solution containing 10 mM MgCl2, 0.01% Brij-35, 2 mM DTT, 0.05% BSA, 1 mM EGTA, 50 mM HEPES pH 7.5, 0.8 μg/ml Poly(Glu-Tyr) (Sigma, Cat No 97105-00-5), and 400 μM ATP were added to each well to start the kinase reaction. The plate was incubated for 90 minutes at room temperature. 20 μL of ADP-Glo reagent (Promega) were then added to each well and the plate was incubated for 40 minutes at room temperature. […] During this step, ADP was converted to ATP, a substrate for luciferase, to produce luminescence signal. Luminescence was measured on an Envision plate reader (Perkin Elmer). Luminescence signal positively correlates with kinase activity. The percent inhibition of kinase activity was calculated as follows: percent inhibition=100×(LumHC−LumSample)/(LumHC−LumLC). […]
Background: ADP-Glo turns the ADP formed in a reaction into a luminescent signal.

Another assay relates to HepG2 (NRAS Q61L). As to the kind of experiment: Cell viability assay (CellTiter Glo). Type of assay: cell-based. Particulars: Homo sapiens, HepG2, 120 h, HepG2, 750 cells per well, read-out: BRAF Cytotoxicity (IC50, nM) HEPG2. The procedure:
Cell viability was measured in the following MAPK pathway mutant cancer cell lines: A375 (BRAF V600E), HepG2 (NRAS Q61L), SK-MEL-30 (NRAS Q61K), and OCI-AML-2 (MBNL1-CRAF fusion). Cell viability was also measured in K562 cells.
A375, HepG2, SK-MEL-30 and OCI-AML-2 cells were grown in the appropriate growth medium as described in Table B2 below, and harvested at 50-80% confluence. Cells were counted and seeded at their appropriate density (see Table B1) in a 384-well plate (Corning 3570). A375, HepG2 and SK-MEL-30 were allowed to adhere overnight prior to treatment and the OCI-AML-2 were treated immediately for the indicated drug treatment times (Table 6).
Table 6 provides the growth media, number of cells seeded per well and drug treatment times for the each cell line. K562 cells were grown as described in Example B1 above.
Compounds were dissolved in DMSO and serially diluted. Serially-diluted compound or a DMSO only control (high control, “HC”) was added to the plated cells in each well. Compounds were tested at concentrations of about 10 μM to 0.51 nM, using three-fold dilutions. The final proportion of DMSO never exceeded 0.1%.
Plates were placed in a 37° C., […] incubator for the indicated treatment times (Table B1). Plates were then removed from the incubator and equilibrated for 15 minutes at room temperature. 40 μl of CellTiter Glo reagent (Promega) was added to measure the relative level of metabolically active cells by quantifying intracellular ATP concentrations. Plates were incubated for 30 minutes at room temperature, and luminescence was measured. Percent viability was normalized to a vehicle control only using the following formula: 0 viability=100×(LumSample−LumLC)/(LumHC−LumLC). Graphical curves were fitted using a nonlinear regression model with a sigmoidal dose response.
On the technique in general: Cellular ATP, detected with luciferase, serves as a proxy for viable cell number.

In another assay the target is ABL1 (Homo sapiens (Human), UniProt P00519). Kind of assay: Luminescence-based ABL kinase assay (Km ATP), ADP-Glo. Type of assay: biochemical. Particulars: measured using the Abl1 Km assay, read-out: IC50 (nM), value inside parentheses. The protocol: (§1) Kinase activity of ABL1 was measured using the ADP-Glo system (Promega), which measures formation of ADP using a luminescence-based method. Compounds were serially diluted in DMSO. 20 nL of compound or DMSO only (high control, HC) were added to a 384-well plate (OptiPlate-384, PerkinElmer) using an Echo550 liquid handler (Labcyte). 15 μL of kinase solution (10 mM MgCl2, 0.01% Brij-35, 2 mM DTT, 0.05% BSA, 1 mM EGTA, 50 mM HEPES pH 7.5, and 3.325 nM ABL1 [Carna Biosciences]) were added to each well of the 384-well plate containing the compounds. No enzyme control wells were included (low control, LC). The plate was incubated at room temperature for 30 minutes. 5 μL of a second solution containing 10 mM MgCl2, 0.01% Brij-35, 2 mM DTT, 0.05% BSA, 1 mM EGTA, 50 mM HEPES pH 7.5, 6 μM Peptide 2 (Perkin Elmer, Cat No 760346), and 40 μM ATP were added to each well to start the kinase reaction. The plate was incubated for 90 minutes at room temperature. 20 μL of ADP-Glo reagent (Promega) were then added to each well and the plate was incubated for 40 minutes at room temperature. 40 μL of kinase detection reagent (Promega) was added to each well and the plate was incubated for an additional 45 minutes at room temperature. During this step, ADP was converted to ATP, a substrate for luciferase, to produce luminescence signal. Luminescence was measured on an Envision plate reader (Perkin Elmer). Luminescence signal positively correlates with kinase activity. The percent kinase activity was calculated as follows: percent kinase activity=100×(LumSample−LumLC)/(LumHC−LumLC). As noted above, DMSO only and no enzyme wells were used as high and low controls, respectively. IC50 values were calculated using the XLFit software.

Another assay concerns the target ABL1 (T315I) (Homo sapiens (Human), UniProt P00519, T315I). The description is as above. Type of assay: biochemical. To be noted: measured using the Abl1 Km assay, read-out: IC50 (nM), value inside parentheses. The protocol: as §1

Chain of c-KIT (P10721 26-976): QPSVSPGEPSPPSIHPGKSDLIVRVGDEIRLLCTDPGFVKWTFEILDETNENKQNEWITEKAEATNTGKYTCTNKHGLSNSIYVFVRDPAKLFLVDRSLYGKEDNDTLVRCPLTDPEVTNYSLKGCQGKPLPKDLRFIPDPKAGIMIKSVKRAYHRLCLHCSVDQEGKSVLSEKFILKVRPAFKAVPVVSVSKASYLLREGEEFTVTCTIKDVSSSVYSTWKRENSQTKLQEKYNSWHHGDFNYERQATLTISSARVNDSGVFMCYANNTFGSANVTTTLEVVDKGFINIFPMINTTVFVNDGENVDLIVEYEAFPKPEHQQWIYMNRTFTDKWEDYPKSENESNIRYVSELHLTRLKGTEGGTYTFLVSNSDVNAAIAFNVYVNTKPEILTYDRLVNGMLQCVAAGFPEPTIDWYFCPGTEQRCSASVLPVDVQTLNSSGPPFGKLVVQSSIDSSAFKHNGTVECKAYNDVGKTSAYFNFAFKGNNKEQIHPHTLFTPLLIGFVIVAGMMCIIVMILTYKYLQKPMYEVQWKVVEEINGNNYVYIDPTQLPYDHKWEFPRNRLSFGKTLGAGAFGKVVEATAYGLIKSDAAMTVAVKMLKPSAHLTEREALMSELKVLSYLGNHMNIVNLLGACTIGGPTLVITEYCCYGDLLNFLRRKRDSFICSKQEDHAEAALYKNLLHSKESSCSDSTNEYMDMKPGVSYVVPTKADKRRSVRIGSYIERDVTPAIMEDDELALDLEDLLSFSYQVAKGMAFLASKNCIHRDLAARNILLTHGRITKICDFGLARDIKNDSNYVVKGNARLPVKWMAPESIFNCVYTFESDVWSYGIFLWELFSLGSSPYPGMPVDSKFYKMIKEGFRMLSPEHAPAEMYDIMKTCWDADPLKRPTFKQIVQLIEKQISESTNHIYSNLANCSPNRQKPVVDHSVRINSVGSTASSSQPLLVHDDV

As usually defined, the inhibition is the share of the control response that was lost under treatment. The term IC50 denotes the concentration that gives 50% inhibition. `Cc1c(F)cncc1-c1cc2cnc(NC(=O)[C@@H]3C[C@@H]3F)cc2n(C)c1=O` [Compound 28, (1S,2S)-2-fluoro-N-[3-(5-fluoro-4-methylpyridin-3-yl)-1-methyl-2-oxo-1,6-naphthyridin-7-yl]cyclopropane-1-carboxamide]: at c-KIT, 0.1 µM produced 7.3% inhibition. The IC50 with HepG2 (NRAS Q61L) was 496 nM; at ABL1 it was 2.2 nM; at ABL1 (T315I) it was 1500 nM.

For the compound `Cc1c(F)cncc1-c1cc2cnc(NC(=O)C3CC3)cc2n(C)c1=O` [Compound 2, N-[3-(5-fluoro-4-methylpyridin-3-yl)-1-methyl-2-oxo-1,6-naphthyridin-7-yl]cyclopropanecarboxamide], 0.1 µM produced 17% inhibition against c-KIT. Besides, the IC50 amounted to 334 nM in the assay with HepG2 (NRAS Q61L), 1.8 nM at ABL1 and 680 nM at ABL1 (T315I).
